Reference: ChEMBL document CHEMBL1150697, “Isolation and structure determination of an antimicrobial ester from a marine sediment-derived bacterium” (2003)

How the values were obtained:
Assay type in all cases: functional
Settings in all cases: read-out: IZ
Alcaligenes faecalis = test: Antimicrobial activity against Alcaligenes faecalis at 1000 ug/mL after 24 hrs by paper disk diffusion method
Escherichia coli = test: Antimicrobial activity against Escherichia coli at 1000 ug/mL after 24 hrs by paper disk diffusion method
Priestia megaterium = test: Antimicrobial activity against Bacillus megaterium at 1000 ug/mL after 24 hrs by paper disk diffusion method
Micrococcus luteus = test: Antimicrobial activity against Micrococcus luteus at 1000 ug/mL after 24 hrs by paper disk diffusion method
Klebsiella pneumoniae = test: Antimicrobial activity against sKlebsiella pneumoniae at 1000 ug/mL after 24 hrs by paper disk diffusion method
Staphylococcus aureus = test: Antimicrobial activity against Staphylococcus aureus at 1000 ug/mL after 24 hrs by paper disk diffusion method
Saccharomyces cerevisiae = test: Antimicrobial activity against Saccharomyces cerevisiae at 1000 ug/mL after 24 hrs by paper disk diffusion method

## CCC(O)CC1CCC(C(C)C(=O)OC(C)CC2CCC(C(C)C(=O)O)O2)O1 (configuration not stated) [BONACTIN]
Alcaligenes faecalis
  zone of inhibition at 1000 µg/mL: 10 mm
Escherichia coli
  zone of inhibition at 1000 µg/mL: 9 mm
Priestia megaterium
  zone of inhibition at 1000 µg/mL: 8 mm
Micrococcus luteus
  zone of inhibition at 1000 µg/mL: 8 mm
Klebsiella pneumoniae
  zone of inhibition at 1000 µg/mL: 8.5 mm
Staphylococcus aureus
  zone of inhibition at 1000 µg/mL: 7 mm
Saccharomyces cerevisiae
  zone of inhibition at 1000 µg/mL: 7.5 mm
